# Test results taken from US20140135359A1, “METHODS OF DESIGNING, PREPARING, AND USING NOVEL PROTONOPHORES” (priority 2012, published 2014).
# Tested on: glucose-6-phosphatase (G6Pase) activity in H4IIE hepatocytes
# Assay: Glucose-6-phosphatase activity in H4IIE hepatocytes
# Assay type: cell-based, murine
# Conditions: 25 μM, 16 h
# Description: 2.4 Glucose-6-phosphatase activity in H4IIE hepatocytes: H4IIE murine hepatocytes (American Type Culture Collection) were cultured to confluence in 12-well plates in DMEM supplemented with 10% FBS and antibiotics. […] Effects of test compounds on cellular viability were assessed by measuring the release of lactate dehydrogenase (LDH) into the culture medium at the end of a 16 h treatment using a commercial kit (Cytotoxicity Detection Kit; Roche Diagnostics; Laval, QC) as per the manufacturer's instructions; LDH release was expressed as % of total (medium+lysate) LDH content for each well. Cells were also routinely inspected for abnormal morphology by phase-contrast microscopy at the conclusion of the treatment period. Following treatment, cells were washed in HEPES-buffered saline (10 mM HEPES, pH 7.4, 150 mM NaCl) at 37° C. Glucose-6-phosphatase (G6Pase) activity was assessed by measuring the rate of glucose formation in the presence of a non-limiting amount of glucose-6-phosphate (G6P), as done by others [39B, 40B]. Glucose production was measured with a commercial glucose assay kit (AutoKit Glucose; Wako Diagnostics; Richmond, Va.). Two hundred μl of AutoKit Glucose buffer solution diluted 1:4 in water were added to each well. Cells were then lysed by the addition of 50 μl of 0.05% Triton X-100 in similarly diluted AutoKit Glucose buffer solution. […] At 37° C., after which time 500 μl of AutoKit Glucose color reagent were added and incubation was continued for exactly 5 min. Samples were then rapidly transferred to microcentrifuge tubes. Fifty μl were removed for assay of total protein content in order to account for effects of test compounds on cellular viability or proliferation [41B]. A commercial protein assay kit based on the Bradford method was used (Protein Assay; Bio-Rad Laboratories; Hercules, Calif.). […] The remaining volume was centrifuged at 3000×g for 5 min. Absorbance of the supernatant was measured at 505 nm at ambient temperature and glucose concentration was calculated from a standard curve performed in parallel. Control wells without exogenous G6P were included on each plate for each treatment condition and activity measured from these wells was subtracted from activity measured in the presence of exogenous G6P. G6Pase activity calculated in this way was then expressed normalized to protein content on a well-by-well basis. Two independent experiments in cells of different passages were performed for each of the selected test compounds, with four to six replicates per condition per experiment.
# Protocol for assay of glucose-6-phosphatase activity in H4IIE or other hepatocytes: H4IIE murine hepatocytes (American Type Culture Collection) may be cultured to confluence in 12-well plates in Dulbecco's modified Eagle's medium (DMEM) supplemented with 10% fetal bovine serum (FBS), and antibiotics. […] Effects of test compounds on cellular viability may be assessed by measuring the release of lactate dehydrogenase (LDH) into the culture medium at the end of a 16 hour treatment using a commercial kit (e.g., Cytotoxicity Detection Kit; Roche Diagnostics; Laval, QC) as per the manufacturer's instructions; LDH release may be expressed as % of total (i.e., medium+lysate) LDH content for each well. Cells may also be routinely inspected for abnormal morphology by phase-contrast microscopy at the conclusion of the treatment period. Following treatment, cells may be washed in HEPES-buffered saline (10 mM HEPES, pH 7.4, 150 mM NaCl) at 37° C. Glucose-6-phosphatase (G6Pase) activity may be assessed by measuring the rate of glucose formation in the presence of a non-limiting amount of glucose-6-phosphate (G6P). Glucose production may be measured with a commercial glucose assay kit (e.g., AutoKit Glucose; Wako Diagnostics; Richmond, Va.). Two hundred μl of AutoKit Glucose buffer solution diluted 1:4 in water may be added to each well.
smiles,measurement,value
"O=[N+]([O-])c1ccc(O)c([N+](=O)[O-])c1 [2,4-dinitrophenol]",suppression of G6Pase activity per mg total protein,39%
